The values that follow come from patent publication US20190284192A1, “NITROGENOUS MACROCYCLIC COMPOUND, PREPARATION METHOD THEREFOR, PHARMACEUTICAL COMPOSITION AND APPLICATION THEREOF” (LUOXIN PHARMACEUTICAL (SHANGHAI) CO., LTD., priority 2016, published 2019).

Each structure is given as a SMILES string. Values joined by “and” are separate entries in the source; they are usually repeats but may differ in a detail not shown here. Equal values may be shown once.

In one series the test system is SU-DHL-6 cells. In words: Inhibitory effect on SU-DHL-6 cells (CellTiter-Glo). Format: cell-based. To be noted: Homo sapiens; 72 hours, CellTiter-Glo; read-out: SU-DHL-6. The method, then: Determinations of the inhibition of the compounds from the above embodiments against SU-DHL-6 cells, the detailed operation steps are as followed:
The 1st Day: Seed the Cells on the Plate
1. The cells were verified that they were in good conditions by observation under microscope;
2. The cells were transferred to a centrifuge tubes, after centrifuged at 1000 rpm for 5 min, the supernatant was discarded;
3. The complete substrate (1640+10% FBS) was added, then blown and patted into single cell suspension, counted by Vi-cell cytometer, the cell suspension was adjusted to desired cell density by the complete medium.
4. The cells were inoculated into a 96 well plate, the cell number was 12000/well at 100 μL per well, 100 μL complete medium was added into the black control;
5. 37° C., 5% CO2 culture overnight.
The 2nd Day: Addition of the Drugs
1. 1000× Compound Plate Preparation
1.1. The test compound was prepared into 10 mM working solution by using DMSO. Then the STS was prepared into 2 mM working solution by using DMSO.
1.2. In the round bottom 96 wells plate, the column 2 of row A to H was added into 60 μL 10 mM test compound (or STS) working solution, columns 3-11 were added into 40 μL DMSO, 20 μL drug solution was pipetted from the column 2 to the column 3, blown and patted for a homogeneous mixture; then 20 μL solution was pipetted from the column 3 to the column 4, blown and patted for a homogeneous mixture, sequently, the drug was diluted by 3 times, 10 concentrations in total. The columns 1 and 12 were supplemented with 40 μL of DMSO.
2. Intermediate plate preparation
A sterile V-bottom 96 deep well plate was used and in each well, 495 μL FBS-free PRMI 1640 medium was added, then 5 μL of the diluted compound (or DMSO) in the 1000× compound plate was pipetted into corresponding position of the V-bottom 96 well plate, blown and patted evenly.
3.1. The cell plate was taken out from the incubator and was observed under microscope. The diluted compound or DMSO in the intermediate plate was added into the cell plate, 11 μL each well.
3.2. The cell was continued to be cultured at 37° C., 5% CO2 for 72 hours.
The 5th Day: CellTiter-Glo Detection of the Cell Activity
1. The CellTiter-Glo buffer and the reaction substrate were taken out from the refrigerator, after balanced to r.t., the buffer was poured into a brown bottle containing the substrate, the bottle was upside down to have the substrate powder sufficientaly dissolved.
2. The cell was observed under microscope; the cell plate was balanced to r.t.
3. The prepared CellTiter-Glo was added into the 96 well plate, at 100 μL/well.
4. The cell plate was placed on a shaker for 10 min, followed by standing at r.t. for 10 min.
5. A white seal film was attached to the bottom of the well plate, and the chemiluminescence signal of each well was detected by the Enspire microplate detector.
6. XLfit was used for data processing. Inhibition rate %=(d-c)/(d-b)×100, while d is the signal value of the DMSO treated group, c is the signal value of the compound treated group, b is signal value of the blank control that only containing medium and DMSO without cells. The data was fitted using the f (x)205[fit=(A+((B−A)/(1+((C/x)^∧D))))] equation in the XLfit software.

For series [1], the system named is MV-4-11 subcutaneous xenograft tumor. In words: Anti-tumor efficacy in vivo, MV-4-11 subcutaneous xenograft model. On the set-up: species or system BALB/c nude mice. To be noted: for anti-tumor effect on the MV-4-11 cell xenograft tumor mouse model: ABBV-075 3 mg/kg, GSK762 15 mg/kg, 4009 10 mg/kg; for anti-tumor effect on the MV-4-11 cell xenograft tumor mouse model / T/C % / Average tumor weight, 15th day of treatement / Average tumor volume, Treatement starts 1st day / Tumor volume TGI (%) 4th day / Tumor volume TGI (%) 6th day / Tumor volume TGI (%) 8th day / Tumor volume TGI (%) 11th day / Tumor volume TGI (%) 13th day / Tumor volume TGI (%) 15th day / Average tumor volume, Treatement ends 15th day: intragastric QD*14; for T/C %: TRTV/CRTV; for T/C % / P, tumor volume difference between the control group and the administrated group / Average tumor weight, 15th day of treatement / Average tumor volume, Treatement starts 1st day / Tumor volume TGI (%) 4th day / Tumor volume TGI (%) 6th day / Tumor volume TGI (%) 8th day / Tumor volume TGI (%) 11th day / Tumor volume TGI (%) 13th day / Tumor volume TGI (%) 15th day / Average tumor volume, Treatement ends 15th day: ABBV-075 3, GSK762 15, 4009 10 mg/kg; for T/C % / Tumor volume TGI (%) 15th day / Average tumor volume, Treatement ends 15th day: 15th day; for P, tumor volume difference between the control group and the administrated group: Two-way Anova Bonferroni post-test; for Average tumor volume, Treatement ends 15th day: 10 mg/kg.
Experimental: According to the growth of the cells, the treatment was passaged twice a week. When the cells are in the exponential growth phase, the cells are collected, counted, and inoculated.
Experimental protocol: 0.2 mL of cell suspension containing about 5×10^MV-4-11 cells (cell suspended in IMDM medium and added with 50% Matrigel) was inoculated subcutaneously into the right back of each mouse. Group administration was initiated when the average tumor volume reached approximately 136.94 mm^3 (day 15 post inoculation). Grouping method: Animals were weighed before dosing and tumor volume was measured. Grouping designed based on tumor volume.
The experimental indicator is to investigate whether tumor growth can be inhibited, delayed or cured. Tumor diameters were measured with vernier calipers three times a week. The formula for calculating tumor volume is: V=0.5×a×b^2, a and b represent the long and short diameters of the tumor, respectively. The antitumor effect of the compound was evaluated by T/C (%). T/C %=TRTV/CRTV×100% (TRTV: treatment group RTV; CRTV: negative comparative group RTV). The relative tumor volume RTV is calculated as RTV=Vt/V1. Where V1 is the measured tumor volume at the time of group administration (i.e., Day 1), and Vt is the tumor volume at each measurement.
The tumor volume and tumor size were analysed by statistical software. GraphPad Prism software was used for analyzation, p<0.05 is considered to have significant difference, p<0.01 is considered to have extremely significant difference.
Two-way Anova Bonferroni post-test is used to compare the tumor volume difference between the control group and the treatment group.

The nature of series [2]: Body weight of MV-4-11 tumor-bearing mice during treatment. Format: in vivo. To be noted: for Average RCBW, Treatment end Day 15: relative body weight change vs Day 1; for Average RCBW, Treatment end Day 15 / Average body weight, Treatment end Day 15 / Average body weight, Treatment start Day 1: intragastric QD*14, ABBV-075 3, GSK762 15, 4009 10 mg/kg; for Average body weight, Treatment end Day 15 / Average body weight, Treatment start Day 1: x ± SEM. The method, then: The preparation and any revision of this experimental protocol are carried out in accordance with the evaluation criteria of the “Institute for Animal Care and Use (IACUC)” of Shanghai Chempartner Chemical Research Co., Ltd. The use and welfare of laboratory animals are carried out in accordance with the provisions of the Association for Assessment and Accreditation of Laboratory Animal Care (AAALAC). Animals are monitored daily for health and death. Routine examinations include observations of the effects of the test substance and the drug on the daily behavior of the animal such as behavioral activities, intake of water and feeds, weight change (three weights measured weekly), appearance signs or other anormal circumstance. The number of animal deaths and side effects in the group were recorded based on the number of animals in each group.

For `CCS(=O)(=O)Nc1ccc(Oc2ccc(F)cc2F)c(-c2cn(C)c(=O)c3[nH]ccc23)c1` [ABBV-075], the IC50 with SU-DHL-6 cells worked out at 0.021 µM. In addition, in series [1], the “anti-tumor effect on the MV-4-11 cell xenograft tumor mouse model” value is “significant anti-tumor effect”; the T/C % was 34.24%; the “Average tumor weight, 15th day of treatement” value came out at 0.314 ± 0.05 g; the “Average tumor volume, Treatement starts 1st day” value worked out at 136.45 ± 14.05 mm^3. In addition, in series [1], the “Tumor volume TGI (%) 4th day” value was 97.12%, the “Tumor volume TGI (%) 6th day” value is 69.45%, the “Tumor volume TGI (%) 8th day” value is 73.8% and the “Tumor volume TGI (%) 11th day” value was 72.41%. Besides, in series [1], the “Tumor volume TGI (%) 13th day” value was found to be 75.81%; the “Tumor volume TGI (%) 15th day” value is 75.56%; the “Average tumor volume, Treatement ends 15th day” value is 346.72 mm^3 and 346.72 ± 68.96 mm^3. For the same compound, the “P, tumor volume difference between the control group and the administrated group” value in series [1] (day 1 after administration) is listed as “P > 0.05”. In series [1] (day 4 after administration), the “P, tumor volume difference between the control group and the administrated group” value is “P > 0.05”. The “P, tumor volume difference between the control group and the administrated group” value in series [1] (day 6 after administration) is reported as “P > 0.05”. Also, in series [1] (day 8 after administration), the “P, tumor volume difference between the control group and the administrated group” value is recorded as “P > 0.05”. Moreover, the “P, tumor volume difference between the control group and the administrated group” value in series [1] (day 11 after administration) was “P < 0.01 (***)”. In addition, the “P, tumor volume difference between the control group and the administrated group” value in series [1] (day 13 after administration) is given as “P < 0.01 (***)”. The “P, tumor volume difference between the control group and the administrated group” value in series [1] (day 15 after administration) is “P < 0.01 (***)”. In series [2], the “Average RCBW, Treatment end Day 15” value was 2.72%; the “Average body weight, Treatment end Day 15” value stood at 21.95 ± 0.36 g; the “Average body weight, Treatment start Day 1” value came out at 21.36 ± 0.21 g.

As to `CCS(=O)(=O)Cc1ccc2c(c1)-c1cn(C)c(=O)cc1[C@H](C)N=C2c1ccc(F)cc1` [Compound 4026, (S)-10-((ethylsulfone)methyl)-7-(4-fluorophenyl)-2,5-dimethyl-2,5-dihydro-3H-benzo[c]pyrido[3,4-e]azepin-3-ketone], the IC50 with SU-DHL-6 cells is 0.01 µM.

For `CCS(=O)(=O)Cc1ccc2c(c1)-c1cn(C)c(=O)cc1CN=C2c1ccc(F)cc1` [Compound 4009, 7-(4-fluorophenyl)-2-methyl-10-(ethylsulfonemethyl)-2H-benzo[c]pyrido[3,4-e]azepin-3(5H)-ketone], the IC50 in the series on SU-DHL-6 cells was 0.083 µM. For the same compound, in series [1], the “anti-tumor effect on the MV-4-11 cell xenograft tumor mouse model” value is given as “significant anti-tumor effect”; the T/C % worked out at 30.13%; the “Average tumor weight, 15th day of treatement” value was 0.276 ± 0.08 g; the “Average tumor volume, Treatement starts 1st day” value stood at 136.78 ± 14.97 mm^3. In series [1], the “Tumor volume TGI (%) 4th day” value came to 81.27%, the “Tumor volume TGI (%) 6th day” value is listed as 75.63%, the “Tumor volume TGI (%) 8th day” value is listed as 79.64% and the “Tumor volume TGI (%) 11th day” value amounted to 83.17%. Also, in series [1], the “Tumor volume TGI (%) 13th day” value is recorded as 81.77%; the “Tumor volume TGI (%) 15th day” value turned out to be 81.16%; the “Average tumor volume, Treatement ends 15th day” value was 305.80 mm^3 and 305.80 ± 81.48 mm^3. In series [1] (day 1 after administration), the “P, tumor volume difference between the control group and the administrated group” value is “P > 0.05”. Further, the “P, tumor volume difference between the control group and the administrated group” value in series [1] (day 4 after administration) is “P > 0.05”. In series [1] (day 6 after administration), the “P, tumor volume difference between the control group and the administrated group” value was “P > 0.05”. Moreover, in series [1] (day 8 after administration), the “P, tumor volume difference between the control group and the administrated group” value is “P > 0.05”. For the same compound, the “P, tumor volume difference between the control group and the administrated group” value in series [1] (day 11 after administration) is reported as “P < 0.001 (***)”. Besides, in series [1] (day 13 after administration), the “P, tumor volume difference between the control group and the administrated group” value is “P < 0.001 (***)”. In addition, in series [1] (day 15 after administration), the “P, tumor volume difference between the control group and the administrated group” value is recorded as “P < 0.001 (***)”. For the same compound, the “body weight and condition of mice during the entire administration period” value in series [2] (4009 10 mg/kg intragastric QD*14) was “did not decrease in body weight”. In addition, in series [2], the “Average RCBW, Treatment end Day 15” value is reported as 2.82%; the “Average body weight, Treatment end Day 15” value is 21.88 ± 0.73 g; the “Average body weight, Treatment start Day 1” value came out at 21.26 ± 0.38 g.
